Measurements: US7445897B2, “Sequence variants of multi-drug resistance genes, MDR1 and MRP1, and methods for assessment of drug penetration and disposition” (University of Washington, priority 2004, dated 2008)
Where two headings read alike, the source gives them in different places. Values belong to the compound of their own block, whether it stands above or below them.

Legend:
[1] = tested on: P-gp (MDR11199, G1199A) in recombinant LLC-PK1 cells; conditions: human, LLC-PK1
LLC-PK1 control cells [2] = tested on: LLC-PK1 control cells
[3] = van Heeswijk et al. 2001; cited from earlier work
MDR1 (1199A variant) = MDR1 (1199A variant) (Homo sapiens, UniProt P08183, G185V/S400N/S893A); experiment: Intracellular uptake of HIV protease inhibitors; conditions: recombinant LLC-PK1 cells expressing MDR1-1199A
Chain of MDR1 (1199A variant) (P08183 whole entry G185V/S400N/S893A): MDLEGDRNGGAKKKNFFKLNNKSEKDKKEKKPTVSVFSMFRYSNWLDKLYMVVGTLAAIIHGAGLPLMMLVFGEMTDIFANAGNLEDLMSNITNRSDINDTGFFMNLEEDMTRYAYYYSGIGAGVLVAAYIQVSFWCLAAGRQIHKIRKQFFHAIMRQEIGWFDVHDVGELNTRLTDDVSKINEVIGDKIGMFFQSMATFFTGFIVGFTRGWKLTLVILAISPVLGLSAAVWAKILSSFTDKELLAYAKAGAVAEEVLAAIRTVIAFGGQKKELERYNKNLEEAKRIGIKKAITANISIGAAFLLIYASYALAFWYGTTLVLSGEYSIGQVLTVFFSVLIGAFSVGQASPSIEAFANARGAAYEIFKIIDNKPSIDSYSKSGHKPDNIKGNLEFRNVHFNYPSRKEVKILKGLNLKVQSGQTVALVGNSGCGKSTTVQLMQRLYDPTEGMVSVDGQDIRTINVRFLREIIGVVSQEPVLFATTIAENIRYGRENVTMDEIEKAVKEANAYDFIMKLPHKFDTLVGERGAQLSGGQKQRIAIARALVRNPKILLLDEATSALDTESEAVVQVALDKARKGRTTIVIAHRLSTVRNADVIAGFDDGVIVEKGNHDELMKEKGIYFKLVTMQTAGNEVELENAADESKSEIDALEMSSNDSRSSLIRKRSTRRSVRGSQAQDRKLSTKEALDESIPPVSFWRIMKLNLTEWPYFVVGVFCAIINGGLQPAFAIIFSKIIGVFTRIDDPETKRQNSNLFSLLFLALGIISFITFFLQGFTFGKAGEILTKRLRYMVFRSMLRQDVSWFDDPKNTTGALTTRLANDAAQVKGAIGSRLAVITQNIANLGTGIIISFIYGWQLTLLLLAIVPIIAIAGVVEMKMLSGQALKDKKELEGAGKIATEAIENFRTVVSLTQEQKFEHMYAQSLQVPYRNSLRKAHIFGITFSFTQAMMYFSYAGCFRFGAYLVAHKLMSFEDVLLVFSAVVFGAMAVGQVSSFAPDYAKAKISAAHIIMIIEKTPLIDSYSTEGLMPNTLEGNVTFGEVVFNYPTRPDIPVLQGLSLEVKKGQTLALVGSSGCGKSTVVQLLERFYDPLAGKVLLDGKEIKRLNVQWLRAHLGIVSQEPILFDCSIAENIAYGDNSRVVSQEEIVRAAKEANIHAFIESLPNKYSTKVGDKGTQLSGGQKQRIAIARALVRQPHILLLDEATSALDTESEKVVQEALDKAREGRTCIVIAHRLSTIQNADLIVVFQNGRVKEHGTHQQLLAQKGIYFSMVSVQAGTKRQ

LLC-PK1 control cells [4] = experiment: Intracellular uptake of HIV protease inhibitors; assay type: in vitro ADME, porcine
MDR1 (wild type) [5] = target: MDR1 (wild type) (Homo sapiens, UniProt P08183, G185V/S893A); experiment: in vitro
[6] = target: T1, MDR1wt in recombinant HEK cells (Homo sapiens, UniProt P08183, G185V/S893A); experiment: Intracellular levels of Rhodamine123 in HEK cells; assay type: cell-based
T1 construct: full-length MDR1 cDNA was generated using the high-fidelity protocol developed previously; expressed in transfected cells
T1 sequence (P08183 whole entry G185V/S893A): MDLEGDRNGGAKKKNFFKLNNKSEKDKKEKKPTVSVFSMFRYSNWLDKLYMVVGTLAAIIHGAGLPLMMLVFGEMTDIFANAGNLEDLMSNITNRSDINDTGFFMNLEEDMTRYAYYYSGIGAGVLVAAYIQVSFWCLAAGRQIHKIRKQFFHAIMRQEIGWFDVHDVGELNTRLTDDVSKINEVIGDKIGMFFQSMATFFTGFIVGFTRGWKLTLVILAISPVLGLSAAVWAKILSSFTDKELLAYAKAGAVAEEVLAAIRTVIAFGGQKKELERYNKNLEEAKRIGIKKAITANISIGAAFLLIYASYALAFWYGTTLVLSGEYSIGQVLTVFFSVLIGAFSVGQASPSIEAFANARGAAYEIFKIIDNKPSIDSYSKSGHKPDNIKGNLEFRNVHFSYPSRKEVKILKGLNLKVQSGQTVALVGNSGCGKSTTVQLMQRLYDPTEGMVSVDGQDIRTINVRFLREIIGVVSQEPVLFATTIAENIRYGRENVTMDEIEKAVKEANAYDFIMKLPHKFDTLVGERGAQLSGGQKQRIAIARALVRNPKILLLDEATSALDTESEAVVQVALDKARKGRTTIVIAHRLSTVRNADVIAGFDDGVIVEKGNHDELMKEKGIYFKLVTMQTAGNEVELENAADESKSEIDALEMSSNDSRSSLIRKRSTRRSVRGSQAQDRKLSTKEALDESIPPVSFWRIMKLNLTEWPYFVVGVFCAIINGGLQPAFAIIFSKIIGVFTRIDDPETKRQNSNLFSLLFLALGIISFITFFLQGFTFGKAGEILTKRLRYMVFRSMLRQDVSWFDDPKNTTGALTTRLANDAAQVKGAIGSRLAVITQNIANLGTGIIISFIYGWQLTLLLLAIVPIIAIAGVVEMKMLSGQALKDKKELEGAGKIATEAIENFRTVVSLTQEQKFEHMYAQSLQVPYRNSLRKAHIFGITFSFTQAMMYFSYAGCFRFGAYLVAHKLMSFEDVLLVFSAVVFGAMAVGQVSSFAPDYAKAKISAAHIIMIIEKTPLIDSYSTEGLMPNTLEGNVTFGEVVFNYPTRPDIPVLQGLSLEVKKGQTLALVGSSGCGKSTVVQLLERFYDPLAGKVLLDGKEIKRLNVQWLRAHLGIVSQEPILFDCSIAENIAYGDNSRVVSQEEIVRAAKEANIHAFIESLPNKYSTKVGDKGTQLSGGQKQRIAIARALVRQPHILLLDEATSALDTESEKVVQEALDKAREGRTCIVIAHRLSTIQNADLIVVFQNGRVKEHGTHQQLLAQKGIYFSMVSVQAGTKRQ

[7] = target: T2, MDR1G1199A in recombinant HEK cells (Homo sapiens, UniProt P08183, G185V/S400N/S893A); experiment: Intracellular levels of Rhodamine123 in HEK cells; assay type: cell-based
T2 construct: full-length MDR1 cDNA was generated using the high-fidelity protocol developed previously; expressed in transfected cells
T2 sequence (P08183 whole entry G185V/S400N/S893A): as the sequence (P08183 whole entry G185V/S400N/S893A) above

[8] = target: T3, MDR1G1199T in recombinant HEK cells (Homo sapiens, UniProt P08183, G185V/S400I/S893A); experiment: Intracellular levels of Rhodamine123 in HEK cells; assay type: cell-based
T3 construct: full-length MDR1 cDNA was generated using the high-fidelity protocol developed previously; expressed in transfected cells
T3 sequence (P08183 whole entry G185V/S400I/S893A): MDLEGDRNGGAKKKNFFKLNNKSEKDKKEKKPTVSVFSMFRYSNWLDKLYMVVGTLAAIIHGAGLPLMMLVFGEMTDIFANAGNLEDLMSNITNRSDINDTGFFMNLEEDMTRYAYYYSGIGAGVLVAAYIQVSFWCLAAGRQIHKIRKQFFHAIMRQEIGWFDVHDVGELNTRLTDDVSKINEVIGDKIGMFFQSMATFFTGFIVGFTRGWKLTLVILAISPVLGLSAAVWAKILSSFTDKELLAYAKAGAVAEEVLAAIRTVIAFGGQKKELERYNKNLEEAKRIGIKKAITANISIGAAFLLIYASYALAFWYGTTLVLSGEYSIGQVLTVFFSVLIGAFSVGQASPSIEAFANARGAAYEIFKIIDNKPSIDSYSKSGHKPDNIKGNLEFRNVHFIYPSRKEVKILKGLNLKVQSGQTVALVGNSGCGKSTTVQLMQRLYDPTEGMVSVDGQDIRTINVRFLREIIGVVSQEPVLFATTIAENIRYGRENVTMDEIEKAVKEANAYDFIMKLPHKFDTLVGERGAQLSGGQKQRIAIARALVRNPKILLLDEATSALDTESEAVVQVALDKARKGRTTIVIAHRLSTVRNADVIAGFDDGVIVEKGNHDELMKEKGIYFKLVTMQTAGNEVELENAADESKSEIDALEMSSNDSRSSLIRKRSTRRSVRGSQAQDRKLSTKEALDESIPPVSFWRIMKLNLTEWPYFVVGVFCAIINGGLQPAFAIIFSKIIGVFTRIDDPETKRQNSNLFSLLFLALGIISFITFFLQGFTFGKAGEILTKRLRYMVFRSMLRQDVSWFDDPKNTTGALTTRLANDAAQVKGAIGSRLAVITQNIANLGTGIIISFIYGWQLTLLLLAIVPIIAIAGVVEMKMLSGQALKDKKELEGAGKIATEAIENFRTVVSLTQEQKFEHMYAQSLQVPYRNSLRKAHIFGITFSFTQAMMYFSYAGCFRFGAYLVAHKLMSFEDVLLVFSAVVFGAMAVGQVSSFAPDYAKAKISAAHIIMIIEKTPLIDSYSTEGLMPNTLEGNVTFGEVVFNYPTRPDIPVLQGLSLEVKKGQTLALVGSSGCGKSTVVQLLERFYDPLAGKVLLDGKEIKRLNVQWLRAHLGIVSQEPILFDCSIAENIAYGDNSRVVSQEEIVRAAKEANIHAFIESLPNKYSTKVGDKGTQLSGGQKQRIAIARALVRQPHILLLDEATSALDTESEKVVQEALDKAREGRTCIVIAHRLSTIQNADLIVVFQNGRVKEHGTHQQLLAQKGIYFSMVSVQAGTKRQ

HEK293 control cells = experiment: Intracellular levels of Rhodamine123 in HEK cells; assay type: cell-based, human
MDR1 (wild type) [9] = experiment: Cytotoxic drug sensitivity assay (MTS); assay type: cell-based, human; conditions: human, HEK293 cells recombinantly expressing MDR1 wild type
MDR1 (G1199A variant) = experiment: in vitro; conditions: human; for EC50 at 72 h: HEK293 cells recombinantly expressing MDR1 G1199A
LLC-PK1 control cells [10] = experiment: Cytotoxic drug sensitivity assay (3H-thymidine); assay type: cell-based, porcine; conditions: Sus scrofa, 72 h, 3 days with drug
Method: (§1) On the second day of the incubation, 1 μCi of ^3H-thymidine (specific activity: 81.1 Ci/mmole) was added to each well and incubated overnight. Cells were harvested on day 3 with a cell harvester.
(§2) Dose response analysis was performed for doxorubicin, vincristine and vinblastine. […] TRANSEPITHELIAL TRANSPORT

[11] = tested on: recombinant MDR1wt LLC-PK1 cells; experiment: Cytotoxic drug sensitivity assay (3H-thymidine); assay type: cell-based, porcine; conditions: for EC50 fold-change from control: MDR1wt vs LLC-PK1 control; for EC50: Sus scrofa, 72 h, MDR1wt LLC-PK1 cells, 3 days with drug
Method: as §1, §2

[12] = tested on: recombinant MDR11199 LLC-PK1 cells; experiment: Cytotoxic drug sensitivity assay (3H-thymidine); assay type: cell-based, porcine; conditions: for EC50 fold-change from control: MDR11199 vs LLC-PK1 control; for EC50: Sus scrofa, 72 h, MDR11199 LLC-PK1 cells, 3 days with drug
Method: as §1, §2

MDR1 (G1199T variant) = experiment: Cytotoxic drug sensitivity assay (MTS); assay type: cell-based, human; conditions: human, HEK293 cells recombinantly expressing MDR1 G1199T
[13] = tested on: HEK negative control cells; experiment: Cytotoxic drug sensitivity assay (MTS); assay type: cell-based, human; conditions: Homo sapiens, 72 h
[14] = protease inhibitor + GF120918 (1 μM)
[15] = 0.5 uM, 30 min load, 30 min efflux
[16] = HEK MDR1 WT, 72hours, MTS, read-out: EC50 (Mean ± S.D.)
[17] = HEK Control, 72hours, MTS, read-out: EC50 (Mean ± S.D.)

Compound: Cc1cccc(C)c1OCC(=O)N[C@@H](Cc1ccccc1)[C@@H](O)C[C@H](Cc1ccccc1)NC(=O)[C@H](C(C)C)N1CCCNC1=O [lopinavir]
decrease in apical-to-basolateral flux in MDR11199 cells compared to MDR1wt cells [1]: 1.6 fold | Rate of transfer dQ/dt ± s.d., A → B (LLC-PK1 control cells [2]; [14]): 8.48 ± 0.16 | Rate of transfer dQ/dt ± s.d., A → B (LLC-PK1 control cells [2]; protease inhibitor alone, 5 μM): 9.21 ± 0.24

Compound: Cc1c(O)cccc1C(=O)N[C@@H](CSc1ccccc1)[C@H](O)CN1C[C@H]2CCCC[C@H]2C[C@H]1C(=O)NC(C)(C)C [nelfinavir]
oral bioavailability in systemic circulation [3]: 70-80%

Compound: CC(C)CN(C[C@@H](O)[C@H](Cc1ccccc1)NC(=O)O[C@H]1CCOC1)S(=O)(=O)c1ccc(N)cc1 [amprenavir]
Km (MDR1 (1199A variant)): 1 µM | Km (LLC-PK1 control cells [4]): 0.25 µM | Vmax (LLC-PK1 control cells [4]): 0.048 pmole/min*10^6 cells | oral bioavailability in systemic circulation [3]: 35-90% | Km (MDR1 (wild type) [5]): 10.2 µM | Rate of transfer dQ/dt ± s.d., A → B (LLC-PK1 control cells [2]; [14]): 10.8 ± 0.9 | Rate of transfer dQ/dt ± s.d., B → A (LLC-PK1 control cells [2]; [14]): 10.2 ± 0.4 | Rate of transfer dQ/dt ± s.d., A → B (LLC-PK1 control cells [2]; protease inhibitor alone, 5 μM): 9.33 ± 0.46 | Rate of transfer dQ/dt ± s.d., B → A (LLC-PK1 control cells [2]; protease inhibitor alone, 5 μM): 11.6 ± 0.8

Compound: Rhodamine-123 [R123]
Intracellular Rhodamine [6, 15]: 2.26 ± 0.06 Unit/mg protein | % of control ([6]; converted to HEK293): 220% | Intracellular Rhodamine [7, 15]: 1.44 ± 0.12 Unit/mg protein | % of control ([7]; converted to HEK293): 340% | Intracellular Rhodamine [8, 15]: 1.82 ± 0.17 Unit/mg protein | % of control ([8]; converted to HEK293): 260% | % of control (HEK293 control cells): 100% | Intracellular Rhodamine (HEK293 control cells; [15]): 4.66 ± 0.14 Unit/mg protein

Now from value to compound, other results behind:

EC50 at 72 h (MDR1 (G1199A variant)): 860 ± 51.8 nM
Compound: CC[C@]1(O)C[C@H]2CN(CCc3c([nH]c4ccccc34)[C@@](C(=O)OC)(c3cc4c(cc3OC)N(C=O)[C@H]3[C@@](O)(C(=O)OC)[C@H](OC(C)=O)[C@]5(CC)C=CCN6CC[C@]43[C@@H]65)C2)C1 [vincristine]
EC50 at 72 h (MDR1 (wild type) [9]; HEK - MDR1 WT, 0 month, 72 hours, read-out: EC50 for cell growth inhibition): 494 ± 115 nM | EC50 at 72 h (MDR1 (wild type) [9]; HEK - MDR1 WT, 1 months, 72 hours, read-out: EC50 for cell growth inhibition): 512 ± 85.1 nM | EC50 at 72 h (MDR1 (wild type) [9]; HEK - MDR1 WT, 2 months, 72 hours, read-out: EC50 for cell growth inhibition): 710 ± 33.3 nM | EC50 at 72 h (MDR1 (wild type) [9]; [16]): 710 ± 33.3 nM | EC50 at 72 h (MDR1 (G1199A variant); EC50 for cell growth inhibition, HEK - MDR1 G1199A, 0 month, 72 hours): 683 ± 276 nM | EC50 at 72 h (MDR1 (G1199A variant); EC50 for cell growth inhibition, HEK - MDR1 G1199A, 1 months, 72 hours): 667 ± 87.5 nM | EC50 at 72 h (MDR1 (G1199A variant); EC50 for cell growth inhibition, HEK - MDR1 G1199A, 2 months, 72 hours): 860 ± 51.8 nM | EC50 (LLC-PK1 control cells [10]): 0.37 ± 0.12 nM | EC50 fold-change from control [11]: 3.19 fold | EC50 [11]: 1.18 ± 0.56 nM | EC50 fold-change from control [12]: 9.23 fold | resistance of MDR11199 cells relative to MDR1wt cells ([12]; MDR11199 vs MDR1wt, from EC50): ~2.9 fold | EC50 [12]: 3.41 ± 1.47 nM | resistance of MDR11199 cells compared with MDR1wt cells ([12]; cytotoxicity studies, LLC-PK1): more resistant | EC50 at 72 h (MDR1 (G1199T variant); HEK - MDR1 G1199T, 0 month, 72 hours, read-out: EC50 for cell growth inhibition): 246 ± 84 nM | EC50 [13, 17]: 10.2 ± 1.04 nM | EC50 ([13]; HEK negative control, 0 month, 72 hours, read-out: EC50 for cell growth inhibition): 4.01 ± 1.29 nM | EC50 ([13]; HEK negative control, 1 months, 72 hours, read-out: EC50 for cell growth inhibition): 6.68 ± 0.448 nM | EC50 ([13]; HEK negative control, 2 months, 72 hours, read-out: EC50 for cell growth inhibition): 10.2 ± 1.04 nM

EC50 (MDR1 (G1199A variant)): 2180 ± 361 nM
Compound: COc1cccc2c1C(=O)c1c(O)c3c(c(O)c1C2=O)C[C@@](O)(C(=O)CO)C[C@@H]3O[C@H]1C[C@H](N)[C@H](O)[C@H](C)O1 [doxorubicin]
EC50 at 72 h (MDR1 (wild type) [9]; [16]): 1110 ± 112 nM | EC50 (LLC-PK1 control cells [10]): 34.2 ± 3.1 nM | EC50 fold-change from control [11]: 4.53 fold | EC50 [11]: 155 ± 68 nM | EC50 fold-change from control [12]: 3.51 fold | EC50 [12]: 120 ± 32 nM | EC50 at 72 h (MDR1 (G1199T variant); HEK MDR1 G1199T, 72hours, MTS, read-out: EC50 (Mean ± S.D.)): 383 ± 39 nM | EC50 [13, 17]: 45.5 ± 25.1 nM
